From ChEMBL document CHEMBL6109122 (J Med Chem, 2025)

Test system: not listed separately
Experiment: Metabolic stability in mouse liver microsomes assessed as half life measured up to 120 mins by LC-MS/MS analysis
Format: ADME, Microsome
Conditions: not given

First: CNC(=O)c1cnc(NC2CCN(CC3CCN(c4ccc5c(c4)C(=O)N(C4CCC(=O)NC4=O)C5=O)CC3)CC2)cc1Nc1cccc(-c2ncc(F)cn2)c1OC (stereo not drawn)
Second: CNC(=O)c1cnc(Nc2ccc(C(=O)NCCCCCNc3ccc4c(c3)C(=O)N(C3CCC(=O)NC3=O)C4=O)cn2)cc1Nc1cccc(-c2ncc(F)cn2)c1OC (stereo not drawn)
The half-life of the first is 4.1-fold higher: 62 min for the first, 15 min for the second.

With `CNC(=O)c1cnc(Nc2ccc(C(=O)NCCCCNc3cccc4c3C(=O)N(C3CCC(=O)NC3=O)C4=O)cn2)cc1Nc1cccc(-c2ncc(F)cn2)c1OC` (stereo not drawn) the half-life was 24 min.

Biological target: T1, Protein cereblon/Non-receptor tyrosine-protein kinase TYK2 (Homo sapiens, UniProt P29597+Q96SW2)
T1 sequence (P29597 whole entry, looked up): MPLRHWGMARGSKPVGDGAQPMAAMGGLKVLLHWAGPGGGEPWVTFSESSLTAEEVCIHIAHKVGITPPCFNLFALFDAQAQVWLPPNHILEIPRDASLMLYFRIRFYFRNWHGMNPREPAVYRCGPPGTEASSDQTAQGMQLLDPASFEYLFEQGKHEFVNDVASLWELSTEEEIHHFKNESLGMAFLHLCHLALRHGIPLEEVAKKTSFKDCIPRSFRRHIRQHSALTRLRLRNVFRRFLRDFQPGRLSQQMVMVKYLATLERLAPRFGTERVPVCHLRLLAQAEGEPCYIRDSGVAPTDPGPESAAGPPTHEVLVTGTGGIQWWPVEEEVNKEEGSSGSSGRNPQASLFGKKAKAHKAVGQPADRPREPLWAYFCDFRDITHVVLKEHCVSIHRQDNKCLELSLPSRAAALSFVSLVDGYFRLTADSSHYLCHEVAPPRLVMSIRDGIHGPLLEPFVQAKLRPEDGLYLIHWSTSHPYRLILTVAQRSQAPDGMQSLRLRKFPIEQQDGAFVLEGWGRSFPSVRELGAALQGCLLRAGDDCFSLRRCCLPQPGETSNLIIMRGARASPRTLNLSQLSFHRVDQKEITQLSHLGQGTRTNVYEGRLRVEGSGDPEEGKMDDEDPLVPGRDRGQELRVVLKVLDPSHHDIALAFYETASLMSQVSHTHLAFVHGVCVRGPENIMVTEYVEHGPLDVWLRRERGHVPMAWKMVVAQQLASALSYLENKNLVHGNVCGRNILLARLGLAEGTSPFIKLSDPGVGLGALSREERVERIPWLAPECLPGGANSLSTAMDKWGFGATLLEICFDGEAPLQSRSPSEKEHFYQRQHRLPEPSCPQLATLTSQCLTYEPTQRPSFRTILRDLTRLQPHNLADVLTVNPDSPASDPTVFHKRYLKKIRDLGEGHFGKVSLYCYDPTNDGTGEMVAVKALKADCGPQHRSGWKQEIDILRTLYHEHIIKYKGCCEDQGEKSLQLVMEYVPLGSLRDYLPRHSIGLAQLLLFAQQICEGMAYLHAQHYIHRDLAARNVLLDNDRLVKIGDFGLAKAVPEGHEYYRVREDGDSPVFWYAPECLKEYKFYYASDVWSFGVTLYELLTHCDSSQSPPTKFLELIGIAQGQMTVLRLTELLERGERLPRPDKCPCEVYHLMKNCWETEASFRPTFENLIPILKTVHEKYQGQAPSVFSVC
T1 sequence (Q96SW2 whole entry, looked up): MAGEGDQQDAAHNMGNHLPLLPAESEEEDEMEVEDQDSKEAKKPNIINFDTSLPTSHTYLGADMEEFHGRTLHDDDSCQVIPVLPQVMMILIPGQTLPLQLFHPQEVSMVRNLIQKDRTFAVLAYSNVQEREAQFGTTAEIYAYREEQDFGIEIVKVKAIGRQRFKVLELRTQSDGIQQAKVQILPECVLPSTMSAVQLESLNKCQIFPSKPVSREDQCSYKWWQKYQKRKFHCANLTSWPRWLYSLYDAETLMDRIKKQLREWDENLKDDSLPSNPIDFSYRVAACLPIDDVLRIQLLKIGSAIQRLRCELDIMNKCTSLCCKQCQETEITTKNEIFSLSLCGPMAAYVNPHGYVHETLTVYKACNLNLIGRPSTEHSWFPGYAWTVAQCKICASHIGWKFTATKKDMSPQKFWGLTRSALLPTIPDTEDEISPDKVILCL
Experiment: PROTAC activity at CRBN/TYK2 in human Jurkat cells assessed as induction of degradation of TYK2 at 10 nM measured after 10 hrs by Western blot analysis relative to control
Format: cell-based
Conditions: not given

Compared with `CNC(=O)c1cnc(Nc2ccc(C(=O)NCCOCCOCCNc3cccc4c3C(=O)N(C3CCC(=O)NC3=O)C4=O)cn2)cc1Nc1cccc(-c2ncc(F)cn2)c1OC` (stereo not drawn), `CNC(=O)c1cnc(Nc2ccc(C(=O)NCCOCCNc3cccc4c3C(=O)N(C3CCC(=O)NC3=O)C4=O)cn2)cc1Nc1cccc(-c2ncc(F)cn2)c1OC` (stereo not drawn) is higher in Activity: 5% for the first, 32% for the second.

First: CNC(=O)c1cnc(Nc2ccc(C(=O)NCCCCCCNc3cccc4c3C(=O)N(C3CCC(=O)NC3=O)C4=O)cn2)cc1Nc1cccc(-c2ncc(F)cn2)c1OC (stereo not drawn)
Second: CNC(=O)c1cnc(Nc2ccc(C(=O)NCCCCCCCCNc3cccc4c3C(=O)N(C3CCC(=O)NC3=O)C4=O)cn2)cc1Nc1cccc(-c2ncc(F)cn2)c1OC (stereo not drawn)
The Activity of the first is lower: 48% for the first, 72% for the second.

First: CNC(=O)c1cnc(Nc2ccc(C(=O)NCCNc3cccc4c3C(=O)N(C3CCC(=O)NC3=O)C4=O)cn2)cc1Nc1cccc(-c2ncc(F)cn2)c1OC (stereo not drawn)
Second: CNC(=O)c1cnc(Nc2ccc(C(=O)NCCCNc3cccc4c3C(=O)N(C3CCC(=O)NC3=O)C4=O)cn2)cc1Nc1cccc(-c2ncc(F)cn2)c1OC (stereo not drawn)
The Activity of the first is lower: 12% for the first, 18% for the second.

First: CNC(=O)c1cnc(Nc2ccc(C(=O)NCCCCNc3cccc4c3C(=O)N(C3CCC(=O)NC3=O)C4=O)cn2)cc1Nc1cccc(-c2ncc(F)cn2)c1OC (stereo not drawn)
Second: CNC(=O)c1cnc(Nc2ccc(C(=O)NCCCCNc3ccc4c(c3)C(=O)N(C3CCC(=O)NC3=O)C4=O)cn2)cc1Nc1cccc(-c2ncc(F)cn2)c1OC (stereo not drawn)
The Activity of the first is lower: 26% for the first, 42% for the second.

Going from `CNC(=O)c1cnc(Nc2ccc(C(=O)NCCCCCCNc3ccc4c(c3)C(=O)N(C3CCC(=O)NC3=O)C4=O)cn2)cc1Nc1cccc(-c2ncc(F)cn2)c1OC` (stereo not drawn) to `CNC(=O)c1cnc(Nc2ccc(C(=O)NCCCCCNc3ccc4c(c3)C(=O)N(C3CCC(=O)NC3=O)C4=O)cn2)cc1Nc1cccc(-c2ncc(F)cn2)c1OC` (stereo not drawn), the Activity rises from 46% to 88%.

Test system: not listed separately
Experiment: Apparent permeability of the compound in human Caco-2 cells at 10 uM measured up to 120 min by LC-MS/MS analysis
Format: ADME, cell-based
Conditions: not given

`CNC(=O)c1cnc(NC2CCN(CC3CCN(c4ccc5c(c4)C(=O)N(C4CCC(=O)NC4=O)C5=O)CC3)CC2)cc1Nc1cccc(-c2ncc(F)cn2)c1OC` (stereo not drawn) gave a Papp at 2 h, 10 µM of under 1 nm/s.

Test system: not listed separately
Experiment: Inhibition of TYK2 dependent STAT3 phosphorylation in IL-6 stimulated human PBMC cells preincubated for 60 mins followed by IL-6 stimulation and measured after 60 mins by FACS assay
Format: cell-based
Conditions: not given

`[2H]C([2H])([2H])NC(=O)c1nnc(NC(=O)C2CC2)cc1Nc1cccc(-c2ncn(C)n2)c1OC` [DEUCRAVACITINIB] gave an IC50 of 0.405 µM.

Test system: not listed separately
Experiment: Metabolic stability in mouse liver microsomes assessed as intrinsic clearance measured up to 120 mins by LC-MS/MS analysis
Format: ADME, Microsome
Conditions: read-out: CLH

Going from `CNC(=O)c1cnc(Nc2ccc(C(=O)NCCCCNc3cccc4c3C(=O)N(C3CCC(=O)NC3=O)C4=O)cn2)cc1Nc1cccc(-c2ncc(F)cn2)c1OC` (stereo not drawn) to `CNC(=O)c1cnc(Nc2ccc(C(=O)NCCCCCNc3ccc4c(c3)C(=O)N(C3CCC(=O)NC3=O)C4=O)cn2)cc1Nc1cccc(-c2ncc(F)cn2)c1OC` (stereo not drawn), the CLint scaled rises from 13.7 L/h/kg to 21.9 L/h/kg (1.6-fold).

Test system: not listed separately
Experiment: Inhibition of TYK2 dependent STAT3 phosphorylation in IL-12 stimulated human PBMC cells preincubated for 60 mins followed by IL-12 stimulation and measured after 60 mins by FACS assay
Format: cell-based
Conditions: not given

For `[2H]C([2H])([2H])NC(=O)c1nnc(NC(=O)C2CC2)cc1Nc1cccc(-c2ncn(C)n2)c1OC` [DEUCRAVACITINIB], the IC50 was 0.0074 µM.

Biological target: T1, Protein cereblon/Non-receptor tyrosine-protein kinase TYK2
Experiment: PROTAC activity at CRBN/TYK2 in human Jurkat cells assessed as induction of degradation of TYK2 at 100 nM measured after 10 hrs by Western blot analysis relative to control
Format: cell-based
Conditions: not given

First: CNC(=O)c1cnc(Nc2ccc(C(=O)NCCOCCOCCNc3cccc4c3C(=O)N(C3CCC(=O)NC3=O)C4=O)cn2)cc1Nc1cccc(-c2ncc(F)cn2)c1OC (stereo not drawn)
Second: CNC(=O)c1cnc(Nc2ccc(C(=O)NCCOCCNc3cccc4c3C(=O)N(C3CCC(=O)NC3=O)C4=O)cn2)cc1Nc1cccc(-c2ncc(F)cn2)c1OC (stereo not drawn)
The Activity of the first is lower: 56% for the first, 66% for the second.

First: CNC(=O)c1cnc(Nc2ccc(C(=O)NCCCCCCNc3cccc4c3C(=O)N(C3CCC(=O)NC3=O)C4=O)cn2)cc1Nc1cccc(-c2ncc(F)cn2)c1OC (stereo not drawn)
Second: CNC(=O)c1cnc(Nc2ccc(C(=O)NCCCCCCCCNc3cccc4c3C(=O)N(C3CCC(=O)NC3=O)C4=O)cn2)cc1Nc1cccc(-c2ncc(F)cn2)c1OC (stereo not drawn)
The Activity of the first is lower: 69% for the first, 74% for the second.

Compared with `CNC(=O)c1cnc(Nc2ccc(C(=O)NCCNc3cccc4c3C(=O)N(C3CCC(=O)NC3=O)C4=O)cn2)cc1Nc1cccc(-c2ncc(F)cn2)c1OC` (stereo not drawn), `CNC(=O)c1cnc(Nc2ccc(C(=O)NCCCNc3cccc4c3C(=O)N(C3CCC(=O)NC3=O)C4=O)cn2)cc1Nc1cccc(-c2ncc(F)cn2)c1OC` (stereo not drawn) is higher in Activity: 15% for the first, 21% for the second.

First: CNC(=O)c1cnc(Nc2ccc(C(=O)NCCCCNc3cccc4c3C(=O)N(C3CCC(=O)NC3=O)C4=O)cn2)cc1Nc1cccc(-c2ncc(F)cn2)c1OC (stereo not drawn)
Second: CNC(=O)c1cnc(Nc2ccc(C(=O)NCCCCNc3ccc4c(c3)C(=O)N(C3CCC(=O)NC3=O)C4=O)cn2)cc1Nc1cccc(-c2ncc(F)cn2)c1OC (stereo not drawn)
The Activity of the first is higher: 82% for the first, 48% for the second.

Going from `CNC(=O)c1cnc(Nc2ccc(C(=O)NCCCCCCNc3ccc4c(c3)C(=O)N(C3CCC(=O)NC3=O)C4=O)cn2)cc1Nc1cccc(-c2ncc(F)cn2)c1OC` (stereo not drawn) to `CNC(=O)c1cnc(Nc2ccc(C(=O)NCCCCCNc3ccc4c(c3)C(=O)N(C3CCC(=O)NC3=O)C4=O)cn2)cc1Nc1cccc(-c2ncc(F)cn2)c1OC` (stereo not drawn), the Activity rises from 62% to 65%.
